Reference: US4678775A, “Method of controlling pests” (priority 1984, dated 1987)
Where two headings read alike, the source gives them in different places.

How the values were obtained:
[1] = system: octopamine-sensitive adenylate cyclase; assay: Activation of octopamine-sensitive adenylate cyclase, firefly light organ broken cell preparation; format: biochemical, Photinus pyralis
[2] = system: tobacco hornworms (Manducca sexta); assay: In vivo leaf test (antifeeding) on tomato leaves with tobacco hornworm larvae; conditions: for rank order antifeeding effectiveness: based on the EC50 of the octopamine agonist, alone or +IBMX; for effect of addition of IBMX on antifeeding / pesticidal activity: with PDE inhibitor IBMX
[3] = target: T1, Beta1 and Beta2-adrenergic-stimulated adenylate cyclase in rat liver (Rattus norvegicus, UniProt P10608); assay: Adenylate cyclase stimulation in rat liver; format: biochemical
T1 construct: adenylate cyclase in rat heart and liver; from tissue; host or cells: rat liver
T1 sequence (P10608 whole entry): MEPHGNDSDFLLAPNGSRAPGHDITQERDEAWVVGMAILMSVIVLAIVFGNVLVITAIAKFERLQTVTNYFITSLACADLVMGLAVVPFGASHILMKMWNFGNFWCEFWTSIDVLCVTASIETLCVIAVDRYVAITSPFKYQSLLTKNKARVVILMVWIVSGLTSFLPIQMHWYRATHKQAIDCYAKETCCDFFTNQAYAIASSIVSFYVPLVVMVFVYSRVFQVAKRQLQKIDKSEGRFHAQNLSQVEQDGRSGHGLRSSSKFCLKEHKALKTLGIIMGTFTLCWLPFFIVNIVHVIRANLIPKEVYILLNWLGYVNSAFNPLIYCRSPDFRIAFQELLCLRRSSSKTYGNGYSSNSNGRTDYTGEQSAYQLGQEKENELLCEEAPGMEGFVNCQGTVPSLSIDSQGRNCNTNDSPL

[4] = system: cyclic AMP in intact nerve cords of tobacco hornworms; assay: Cyclic AMP content of intact tobacco hornworm nerve cords; format: cell-based; conditions: 5 minutes
Description: After 5 minutes, the intact nerve cord was quickly treated to release all cyclic AMP which was present within the tissue.

[5] = system: adenylate cyclase in nerve cord of tobacco hornworm; assay: Adenylate cyclase activation in broken cell preparations of tobacco hornworm nerve cord; format: biochemical, tobacco hornworm (Manducca sexta); conditions: FIG. 1
Description: Otherwise, the procedure is identical to that described above.
The tissue is homogenized (usually 15 mg/ml) as above in 6 mM Tris maleate, pH 7.4. […] This is done to cancel out the effects of dopamine and serotonin receptors which are usually present in nerve cord.
As detailed previously, the adenylate cyclase assay, either in the firefly or in other insect pest, is also used to identify a direct stimulator of adenylate cyclase.

[6] = Table 1, maximal activation as % of that by (±)-p-octopamine, N.A. = No Activity
[7] = Table 1, ratio greater than 1 = better than (±)-p-octopamine
[8] = Table 2, clonidines, N.A. = no activity
[9] = Table 4, agonist 10^-1 gm/100 ml, No PDE Inhibitor
[10] = Table 4, agonist 10^-2 gm/100 ml, No PDE Inhibitor
[11] = Table 5, agonist 10^-2 gm/100 ml, IBMX 0.1 g/100 ml
[12] = Table 5, agonist 1 gm/100 ml, IBMX 0.1 g/100 ml
[13] = Table 5, agonist 1 gm/100 ml, No PDE Inhibitor
[14] = Table 5, agonist 10^-1 gm/100 ml, IBMX 0.1 g/100 ml
[15] = Table 5, agonist 10^-1 gm/100 ml, No PDE Inhibitor
[16] = Table 5, agonist 10^-2 gm/100 ml, No PDE Inhibitor

NCCc1ccc(O)c(O)c1 [dopamine, reference compound]
Vmax (% OCT) [1, 6]: 4 ± 1 % OCT
Ka^oct/Ka^(1) ratio (column head is drawing 15) [1, 7]: 0.26

NC[C@@H](O)c1ccc(O)cc1 [(+)-p-octopamine, reference compound]
Vmax (% OCT) [1, 6]: 81 ± 1 % OCT

CNCCc1ccc(O)c(O)c1 [Nmethyldopamine, reference compound]
Ka^oct/Ka^(1) ratio (column head is drawing 15) [1, 7]: 0.19

Clc1ccc(Cl)c(N=C2NCCN2)c1 [NC 2]
Ka ratio to octopamine ([1]; Table 2, clonidines): 1.1
Vmax (% OCT) [1, 8]: 9 % OCT

NCC(O)c1ccc(O)c(Cl)c1 (stereo not shown) [m-chloro-octopamine]
Ka^oct/Ka^(1) ratio (column head is drawing 15) [1, 7]: 0.28

CN(CCCl)c1cc(Cl)c(N=C2NCCN2)c(Cl)c1 [NC 16]
Ka ratio to octopamine ([1]; Table 2, clonidines): 4.8
Vmax (% OCT) [1, 8]: 6 % OCT

CNC(C)C(O)c1ccc(O)cc1 (racemic) [(±)-α-methylsynephrine, reference compound]
Vmax (% OCT) [1, 6]: 7 ± 2 % OCT
Ka^oct/Ka^(1) ratio (column head is drawing 15) [1, 7]: < 0.01

NCC(O)c1ccc(F)cc1 (stereo not shown) [p-fluoro-phenylethanolamine]
% Leaf Remaining [2, 9]: < 5%
% Leaf Remaining [2, 10]: < 5%
% Leaf Remaining ([2]; Table 4, agonist 10^-3 gm/100 ml, IBMX 0.1 g/100 ml): 50%
% Leaf Remaining ([2]; Table 4, agonist 10^-3 gm/100 ml, No PDE Inhibitor): < 5%

Cc1cccc(C)c1N=C1NCCN1 [NC 4]
Ka ratio to octopamine ([1]; Table 2, clonidines): 0.41
Vmax (% OCT) [1, 8]: 80 % OCT

CC(C)NC[C@H](O)c1ccc(O)c(O)c1 [(-)-isoproterenol, reference compound]
stimulation of adenylate cyclase [3]: potently stimulates

Brc1ccc(N=C2NCCN2)cc1 [NC 12]
Ka ratio to octopamine ([1]; Table 2, clonidines): 3.0
Vmax (% OCT) [1, 8]: 34 % OCT

COc1ccc(CCN)cc1 [p-methoxyphenylethylamine, reference compound]
Vmax (% OCT) [1, 6]: 6 ± 3 % OCT
Ka^oct/Ka^(1) ratio (column head is drawing 15) [1, 7]: 0.10

Cc1cc(C)c(N=C2NCCN2)c(C)c1 [NC 13]
octopamine potency ratio [1]: 4.3
Ka ratio to octopamine ([1]; Table 2, clonidines): 4.3
Vmax (% OCT) [1, 8]: 112 % OCT

CNC[C@H](O)c1cccc(O)c1 [(-)-phenylephrine, reference compound]
Ka^oct/Ka^(1) ratio (column head is drawing 15) [1, 7]: < 0.2

Cc1cc(Cl)ccc1N=C1NCCN1 [NC 7, 2-(2-methyl, -4-chlorophenylimino)imidazolidine]
Cyclic AMP Content (Fold-increase over Control) ([4]; +0.1 mM IBMX): 13.9 ± 3.0 Fold-increase over Control
Cyclic AMP Content (Fold-increase over Control) ([4]; -IBMX): 2.2 ± 0.2 Fold-increase over Control
% Leaf Remaining [2, 11]: 85%
Ki for inhibition of feeding by the larvae ([2]; applied to leaves): 0.01 mg/leaf
rank order antifeeding effectiveness [2]: DDCDM+IBMX=NC7+IBMX>Octopamine+IBMX=DDCDM alone>NC7 alone>octopamine alone
behaviour of larvae feeding on treated leaves ([2]; in vivo): tremors, hyperactivity, and leaf walk-off behavior
effect of addition of IBMX on antifeeding / pesticidal activity [2]: substantial increases in the potency
octopamine potency ratio [1]: 9.8
Ka ratio to octopamine ([1]; Table 2, clonidines): 9.8
Vmax (% OCT) [1, 8]: 68 % OCT
activation of adenylate cyclase in nerve cord [5]: potent activators

CNCC(O)c1ccc(O)cc1 (racemic) [(±)-Nmethyloctopamine]
% Leaf Remaining ([2]; Table 4, agonist 1 gm/100 ml, IBMX 0.1 g/100 ml): 90%
% Leaf Remaining ([2]; Table 4, agonist 1 gm/100 ml, No PDE Inhibitor): 30%
% Leaf Remaining ([2]; Table 4, agonist 10^-1 gm/100 ml, IBMX 0.1 g/100 ml): 55%
% Leaf Remaining [2, 9]: < 5%
% Leaf Remaining ([2]; Table 4, agonist 10^-2 gm/100 ml, IBMX 0.1 g/100 ml): 42%
% Leaf Remaining [2, 10]: < 5%
Ka^oct/Ka^(1) ratio (column head is drawing 15) [1]: 1.8

c1ccc(N=C2NCCN2)cc1 [NC 10]
% Leaf Remaining [2, 12]: 15%
% Leaf Remaining [2, 13]: 5%
% Leaf Remaining [2, 14]: 13%
% Leaf Remaining [2, 15]: 5%
% Leaf Remaining [2, 11]: 15%
% Leaf Remaining [2, 16]: 5%
% Leaf Remaining ([2]; Table 5, agonist 10^-3 gm/100 ml, IBMX 0.1 g/100 ml): 12%
% Leaf Remaining ([2]; Table 5, agonist 10^-3 gm/100 ml, No PDE Inhibitor): 5%
antifeeding activity ([2]; compound itself, in words): lacked antifeeding activity both in the absence or presence of the PDE inhibitor

Cc1cc(Cl)ccc1N=CN [DDCDM, di-demethylchlordimeform, reference compound]
Cyclic AMP Content (Fold-increase over Control) ([4]; +0.1 mM IBMX): 11.1 ± 2.7 Fold-increase over Control
Cyclic AMP Content (Fold-increase over Control) ([4]; -IBMX): 5.4 ± 3.8 Fold-increase over Control
rank order antifeeding effectiveness [2]: DDCDM+IBMX=NC7+IBMX>Octopamine+IBMX=DDCDM alone>NC7 alone>octopamine alone
activation of adenylate cyclase in nerve cord [5]: potent activators

NCC(O)c1ccccc1O (racemic) [(±)-o-octopamine, reference compound]
Ka^oct/Ka^(1) ratio (column head is drawing 15) [1, 7]: 0.05

CNC[C@H](O)c1ccc(O)c(O)c1 [(-)-epinephrine, reference compound]
Ka^oct/Ka^(1) ratio (column head is drawing 15) [1]: 0.20

NCC(O)c1cccc(O)c1 (racemic) [(±)-m-octopamine, reference compound]
pesticidal activity ([2]; no IBMX): much less pesticidal activity than p-octopamine
Vmax (% OCT) [1, 6]: 9 ± 1 % OCT
Ka^oct/Ka^(1) ratio (column head is drawing 15) [1, 7]: 0.1

NCCc1ccccc1 [β-phenylethylamine, reference compound]
Ka^oct/Ka^(1) ratio (column head is drawing 15) [1]: 0.03

Clc1cc(Cl)c(N=C2NCCN2)cc1Cl [NC 3]
octopamine potency ratio [1]: 3.0
Ka ratio to octopamine ([1]; Table 2, clonidines): 2.8
Vmax (% OCT) [1, 8]: 80 % OCT

Cc1ccc(N=C2NCCN2)c(C)c1 [NC 9]
octopamine potency ratio [1]: 5.1
Ka ratio to octopamine ([1]; Table 2, clonidines): 5.1
Vmax (% OCT) [1, 8]: 78 % OCT

COc1cc(C(O)CN)ccc1O (racemic) [(±)-normetanephrine, reference compound]
Ka^oct/Ka^(1) ratio (column head is drawing 15) [1, 7]: 0.07

Clc1cccc(Cl)c1N=C1NCCN1 [clonidine, reference compound]
% Leaf Remaining [2, 12]: 63%
% Leaf Remaining [2, 13]: 65%
% Leaf Remaining [2, 14]: 55%
% Leaf Remaining [2, 15]: 20%
% Leaf Remaining [2, 11]: 55%
% Leaf Remaining [2, 16]: 5%
effect of addition of IBMX on antifeeding / pesticidal activity [2]: substantial increases in the potency
Ka ratio to octopamine [1]: 0.95
octopamine potency ratio [1]: 0.9
Vmax (% OCT) ([1]; light organ homogenate): 35 % OCT
Vmax, % that of octopamine ([1]; light organ homogenate): 35%

NCCc1ccc(O)cc1 [tyramine, reference compound]
Ka^oct/Ka^(1) ratio (column head is drawing 15) [1, 7]: 0.15

Clc1ccc(N=C2NCCN2)c(Cl)c1 [NC 8]
octopamine potency ratio [1]: 3.7
Ka ratio to octopamine ([1]; Table 2, clonidines): 3.7
Vmax (% OCT) [1, 8]: 47 % OCT

Nc1cc(Cl)c(N=C2NCCN2)c(Cl)c1 [NC 14]
Ka ratio to octopamine ([1]; Table 2, clonidines): 0.7
Vmax (% OCT) [1, 8]: 29 % OCT

CC(N)C(O)c1ccccc1 (racemic) [(±)-norephedrine, reference compound]
Ka^oct/Ka^(1) ratio (column head is drawing 15) [1]: < 0.09
Vmax (% OCT) [1, 6]: 8 ± 1 % OCT

CN(C)c1cc(Cl)c(N=C2NCCN2)c(Cl)c1 [NC 15]
Ka ratio to octopamine ([1]; Table 2, clonidines): 1.9
Vmax (% OCT) [1, 8]: 38 % OCT

Clc1cc(Cl)c(N=C2NCCN2)c(Cl)c1 [NC 11]
Ka ratio to octopamine ([1]; Table 2, clonidines): 1.9
Vmax (% OCT) [1, 8]: 60 % OCT

CN(C)CC(O)c1ccc(O)cc1 (racemic) [(±)-N,Ndimethyloctopamine, reference compound]
Ka^oct/Ka^(1) ratio (column head is drawing 15) [1, 7]: 0.9

Nc1ncnc2c1nc(Sc1ccc(Cl)cc1)n2[C@@H]1O[C@@H]2COP(=O)(O)O[C@H]2[C@H]1O [p-Cl-phenylthio cyclic AMP, 8-p-chlorophenylthio-cyclic AMP, reference compound]
antifeeding activity ([2]; concentration of 1%, absence of IBMX): showed antifeeding activity
effect of addition of IBMX on antifeeding / pesticidal activity [2]: increased by addition of IBMX

NC[C@H](O)c1ccc(O)c(O)c1 [(-)-nonrepinephrine, reference compound]
Ka^oct/Ka^(1) ratio (column head is drawing 15) [1, 7]: 0.13

CC(N)Cc1ccc(O)cc1 (racemic) [(±)-p-hydroxyamphetamine, reference compound]
Ka^oct/Ka^(1) ratio (column head is drawing 15) [1]: < 0.05
Vmax (% OCT) [1, 6]: 8 ± 3 % OCT

CC(N)C(O)c1ccc(O)cc1 (racemic) [(±)-α-methyloctopamine, reference compound]
Vmax (% OCT) [1, 6]: 44 ± 2 % OCT
Ka^oct/Ka^(1) ratio (column head is drawing 15) [1, 7]: 0.05

Brc1cccc(Br)c1N=C1NCCN1 [NC 6]
Ka ratio to octopamine ([1]; Table 2, clonidines): 2.1
Vmax (% OCT) [1, 8]: 35 % OCT
